# Experimental data published in patent US11311576B2, “Methods of use for CAR T cells” (Seattle Children's Hospital, priority 2018, dated 2022).
# Key:
# [1] = system: MDA-MB-231 tumors; assay: CAR-T therapy with EC17 fixed dose or dose de-escalation in mice bearing MDA-MB-231 tumors; format: in vivo
# Description: The effect of EC17 dose de-escalation was investigated on the anti-tumor activity and the toxicity (body weight changes) of CAR-T therapy. Two different anti-fluorescein scFv were used for the CAR constructions (FIG. 1). The first construct of CAR contains the following domains: antiFL(FITC-E2)scFv-IgG4 hinge (CH2 (L235D, N297Q)-CH3)-CD28 TM-4-1BB-CD3z-T2A-EGFRt. The second construct of CAR contains the following domains: antiFL(FITC-4M5.3)scFv-IgG4 hinge (CH2 (L235D, N297Q)-CH3)-CD28 TM-4-1BB-CD3z-T2A-EGFRt. The nucleic acid sequence and amino acid sequence of the CAR of each construct are shown as SEQ ID NOS:1 to 4. Human T cells were isolated, activated and transduced with a lentiviral vector carrying the appropriate CAR gene. CD4+ T cells with the CAR-modification and CD8+ T cells with the CAR-modification were isolated and cultured separately in vitro for about 7 days. CD4+ CAR-T cells and CD8+ CAR-T cells were mixed at a 1:1 ratio before i.v. administration for animal studies.
# The second construct 4M5.3-CAR (antiFL(FITC-4M5.3) scFv-IgG4 hinge (CH2 (L235D, N297Q)-CH3)-CD28 TM-4-1BB-CD3z-T2A-EGFRt) was also evaluated. Mice bearing MDA-MB-231 tumors (150-250 mm^3) were used for in vivo studies to evaluate 4M5.3-CAR-T cells. […]
# [2] = system: HOS-FRα tumor; assay: CRS toxicity and sodium fluorescein rescue in HOS-FRα tumor-bearing mice; format: in vivo; conditions: intravenous ~95 mg/kg on day 13, plasma 6 hours later, 35 million total CAR-T cells
# Experimental: All animal care and use were performed according to NIH guidelines and in compliance with protocols approved by the Purdue University Animal Use and Care Committee. Female 4 to 5-week-old NOD/SCID gamma (NSG™) mice (stock number: 005557) were purchased from The Jackson Laboratory (Bar Harbor, Me.). Unless specifically indicated, all animals were maintained on a FA-deficient diet (TestDiet, St. Louis, Mo.) upon arrival and throughout the study. To establish subcutaneous xenografts, MDA-MB-231 and HOS-FRα were implanted in the right flank region at 2.5×10^6 and 1×10^6 cells per animal, respectively. For intravenous xenografts, THP1-FRb cells were inoculated at 5×10^6 cells per animal. Subcutaneous tumors were measured 2-3 times per week with a caliper and calculated using the ellipsoidal formula […]. […] All animal doses (CAR-T cells, EC17, sodium fluorescein) were given intravenously.
# Depending on the CAR-T cell dose and how EC17 is administered, tumor-bearing mice receiving FITC-specific CAR-T cells can experience severe CRS and varying degrees of body weight loss. […] On the days immediately following each EC17 dose, animals were scored and rescue agents such as sodium fluorescein, folic acid and leucovorin were used to mitigate CRS toxicity. […]
compound,measurement,setting,value
O=C([O-])c1ccccc1-c1c2ccc(=O)cc-2oc2cc([O-])ccc12.[Na+].[Na+] [sodium fluorescein],antitumor activity after NaFL rescue,"[1]; E2-CAR-T 10 and 20 million cells, EC17 500 nmol/kg SIW, NaFL 6 umol/kg",antitumor activity was maintained
same,antitumor activity after NaFL rescue,[1]; E2-CAR-T 30 million cells with EC17 dose de-escalation,antitumor activity is maintained
same,CAR-T cell derived human cytokines after rescue,[2],acted very quickly to reduce CAR-T cell derived human cytokines
